{"source": "patent US11691980B2", "about": "“Liphagal analog and multi-targeted kinase inhibitor containing liphagal or analog thereof” (TOHOKU UNIVERSITY, priority 2017, dated 2023)", "assay_in_all_cases": "mobility shift assay", "format_in_all_cases": "biochemical", "key": {"MAP3K4_Cascade": {"test_system": "MAP3K4_Cascade", "settings": "10 μM"}, "AurA": {"target": "T1, AurA (Homo sapiens, UniProt O14965)", "T1 construct": "purchased Carna Biosciences"}, "MAP3K3_Cascade": {"test_system": "MAP3K3_Cascade", "settings": "10 μM"}, "CDK3/CycE1": {"target": "T2, CDK3/CycE1 (Homo sapiens, UniProt Q00526)", "T2 construct": "purchased Carna Biosciences"}, "DYRK3": {"target": "T3, DYRK3 (Homo sapiens, UniProt O43781)", "T3 construct": "purchased Carna Biosciences"}, "CDC2/CycB1": {"target": "T4, CDC2/CycB1 (Homo sapiens, UniProt P06493)", "T4 construct": "purchased Carna Biosciences"}, "PDGFRα(T674I)": {"target": "T5, PDGFRα(T674I) (Homo sapiens, UniProt P16234, T674I)", "T5 construct": "purchased Carna Biosciences", "T5 sequence (P16234 24-1089 T674I)": "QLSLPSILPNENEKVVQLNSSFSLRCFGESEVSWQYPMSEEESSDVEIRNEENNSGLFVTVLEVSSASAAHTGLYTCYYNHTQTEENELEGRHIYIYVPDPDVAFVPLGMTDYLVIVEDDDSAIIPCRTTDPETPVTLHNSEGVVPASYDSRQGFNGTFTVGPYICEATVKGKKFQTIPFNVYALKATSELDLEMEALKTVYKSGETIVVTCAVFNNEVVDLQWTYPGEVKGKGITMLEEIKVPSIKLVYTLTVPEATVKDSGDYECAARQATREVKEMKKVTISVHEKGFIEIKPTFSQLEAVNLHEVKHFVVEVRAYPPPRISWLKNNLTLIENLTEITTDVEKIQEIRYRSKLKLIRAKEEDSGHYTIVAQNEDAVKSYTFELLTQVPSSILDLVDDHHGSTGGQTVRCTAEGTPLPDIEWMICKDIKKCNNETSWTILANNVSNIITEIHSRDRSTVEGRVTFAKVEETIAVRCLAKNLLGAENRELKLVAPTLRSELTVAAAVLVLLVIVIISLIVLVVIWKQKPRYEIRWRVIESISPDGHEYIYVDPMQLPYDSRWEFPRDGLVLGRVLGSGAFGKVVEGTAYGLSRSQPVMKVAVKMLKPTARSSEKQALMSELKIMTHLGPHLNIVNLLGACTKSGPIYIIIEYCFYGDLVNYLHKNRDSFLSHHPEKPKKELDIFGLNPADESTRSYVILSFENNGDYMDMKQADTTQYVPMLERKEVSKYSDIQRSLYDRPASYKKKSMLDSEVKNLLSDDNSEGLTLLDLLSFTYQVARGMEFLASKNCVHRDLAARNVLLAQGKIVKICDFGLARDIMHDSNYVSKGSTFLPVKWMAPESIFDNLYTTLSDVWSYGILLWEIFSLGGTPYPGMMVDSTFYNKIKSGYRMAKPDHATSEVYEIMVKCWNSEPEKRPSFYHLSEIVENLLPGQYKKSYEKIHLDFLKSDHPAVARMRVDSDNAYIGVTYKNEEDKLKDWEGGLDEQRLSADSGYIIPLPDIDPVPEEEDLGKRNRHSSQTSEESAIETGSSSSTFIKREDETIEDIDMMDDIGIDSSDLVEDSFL"}, "MAP2K3_Cascade": {"target": "T6, MAP2K3_Cascade (Homo sapiens, UniProt P46734)", "T6 construct": "purchased Carna Biosciences"}, "GSK3β": {"target": "T7, GSK3β (Homo sapiens, UniProt P49841)", "T7 construct": "purchased Carna Biosciences"}, "DYRK1B": {"target": "T8, DYRK1B (Homo sapiens, UniProt Q9Y463)", "T8 construct": "purchased Carna Biosciences"}, "PHKG1": {"target": "T9, PHKG1 (Homo sapiens, UniProt Q16816)", "T9 construct": "purchased Carna Biosciences"}, "HPK3": {"target": "T10, HPK3 (Homo sapiens, UniProt Q9H422)", "T10 construct": "purchased Carna Biosciences"}, "MAP2K6_Cascade": {"target": "T11, MAP2K6_Cascade (Homo sapiens, UniProt P52564)", "T11 construct": "purchased Carna Biosciences"}, "MLK3_Cascade": {"target": "T12, MLK3_Cascade (Homo sapiens, UniProt Q16584)", "T12 construct": "purchased Carna Biosciences"}, "SRM": {"target": "T13, SRM (Homo sapiens, UniProt Q9H3Y6)", "T13 construct": "purchased Carna Biosciences"}, "HER4": {"target": "T14, HER4 (Homo sapiens, UniProt Q15303)", "T14 construct": "purchased Carna Biosciences", "T14 sequence (Q15303 26-1308)": "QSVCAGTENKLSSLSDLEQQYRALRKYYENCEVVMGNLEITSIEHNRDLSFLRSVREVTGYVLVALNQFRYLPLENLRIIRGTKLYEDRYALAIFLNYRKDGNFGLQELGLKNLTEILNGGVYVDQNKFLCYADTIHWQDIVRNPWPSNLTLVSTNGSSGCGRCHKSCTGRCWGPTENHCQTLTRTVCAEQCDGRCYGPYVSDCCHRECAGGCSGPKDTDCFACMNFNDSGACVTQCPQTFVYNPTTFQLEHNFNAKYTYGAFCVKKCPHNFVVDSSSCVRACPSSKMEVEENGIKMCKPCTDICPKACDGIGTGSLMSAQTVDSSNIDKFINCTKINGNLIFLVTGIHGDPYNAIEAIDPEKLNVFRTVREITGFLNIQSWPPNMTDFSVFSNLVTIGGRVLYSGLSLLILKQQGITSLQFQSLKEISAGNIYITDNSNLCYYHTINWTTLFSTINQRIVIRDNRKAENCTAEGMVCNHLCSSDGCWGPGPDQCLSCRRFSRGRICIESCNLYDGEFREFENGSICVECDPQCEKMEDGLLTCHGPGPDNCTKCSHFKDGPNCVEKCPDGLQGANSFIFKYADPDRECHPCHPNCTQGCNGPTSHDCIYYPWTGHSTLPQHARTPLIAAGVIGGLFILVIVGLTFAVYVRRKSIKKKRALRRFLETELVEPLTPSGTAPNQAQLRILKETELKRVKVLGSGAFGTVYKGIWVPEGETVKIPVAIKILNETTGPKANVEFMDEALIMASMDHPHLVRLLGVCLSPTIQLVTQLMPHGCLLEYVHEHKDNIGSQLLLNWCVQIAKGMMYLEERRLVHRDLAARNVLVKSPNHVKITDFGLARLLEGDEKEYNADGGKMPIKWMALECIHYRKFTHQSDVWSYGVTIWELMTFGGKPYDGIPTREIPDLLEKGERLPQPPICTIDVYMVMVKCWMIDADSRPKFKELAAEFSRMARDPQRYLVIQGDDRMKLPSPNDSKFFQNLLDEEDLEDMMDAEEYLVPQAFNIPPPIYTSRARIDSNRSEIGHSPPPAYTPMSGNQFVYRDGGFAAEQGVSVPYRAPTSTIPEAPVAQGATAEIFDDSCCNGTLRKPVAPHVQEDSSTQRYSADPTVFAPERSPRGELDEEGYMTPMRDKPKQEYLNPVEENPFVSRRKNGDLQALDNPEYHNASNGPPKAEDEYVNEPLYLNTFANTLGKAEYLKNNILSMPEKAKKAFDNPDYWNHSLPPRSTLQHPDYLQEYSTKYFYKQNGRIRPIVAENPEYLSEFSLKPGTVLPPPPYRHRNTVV"}, "SYK": {"target": "T15, SYK (Homo sapiens, UniProt P43405)", "T15 construct": "purchased Carna Biosciences"}, "NEK1": {"target": "T16, NEK1 (Homo sapiens, UniProt Q96PY6)", "T16 construct": "purchased Carna Biosciences"}, "PBK": {"target": "T17, PBK (Homo sapiens, UniProt Q96KB5)", "T17 construct": "purchased Carna Biosciences"}, "AurA/TPX2": {"target": "T18, AurA/TPX2 (Homo sapiens, UniProt O14965)", "T18 construct": "purchased Carna Biosciences", "T18 sequence (O14965 whole entry)": "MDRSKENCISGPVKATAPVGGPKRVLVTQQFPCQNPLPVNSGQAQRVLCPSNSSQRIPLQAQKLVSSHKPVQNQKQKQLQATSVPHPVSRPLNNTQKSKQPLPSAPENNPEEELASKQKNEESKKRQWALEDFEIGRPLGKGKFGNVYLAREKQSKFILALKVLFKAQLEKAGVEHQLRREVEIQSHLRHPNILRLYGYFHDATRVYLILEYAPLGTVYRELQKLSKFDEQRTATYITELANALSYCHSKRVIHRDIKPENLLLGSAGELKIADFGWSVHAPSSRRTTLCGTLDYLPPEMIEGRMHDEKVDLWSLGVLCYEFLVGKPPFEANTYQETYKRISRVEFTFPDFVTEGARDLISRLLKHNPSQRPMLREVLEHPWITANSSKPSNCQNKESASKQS", "T18 sequence (Q9ULW0 1-43 partner limits assumed)": "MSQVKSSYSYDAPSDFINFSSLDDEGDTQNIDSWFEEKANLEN"}, "LCK": {"target": "T19, LCK (Homo sapiens, UniProt P06239)", "T19 construct": "purchased Carna Biosciences"}, "SRPK2": {"target": "T20, SRPK2 (Homo sapiens, UniProt P78362)", "T20 construct": "purchased Carna Biosciences"}, "p38B": {"target": "T21, p38B (Homo sapiens, UniProt Q15759)", "T21 construct": "purchased Carna Biosciences"}, "RSK4": {"target": "T22, RSK4 (Homo sapiens, UniProt Q9UK32)", "T22 construct": "purchased Carna Biosciences"}, "CSK": {"target": "T23, CSK (Homo sapiens, UniProt P41240)", "T23 construct": "purchased Carna Biosciences"}, "TNK1": {"target": "T24, TNK1 (Homo sapiens, UniProt Q13470)", "T24 construct": "purchased Carna Biosciences"}, "MAPKAPK5": {"target": "T25, MAPKAPK5 (Homo sapiens, UniProt Q8IW41)", "T25 construct": "purchased Carna Biosciences"}, "CK1y3": {"target": "T26, CK1y3 (Homo sapiens, UniProt Q9Y6M4)", "T26 construct": "purchased Carna Biosciences"}, "RET(S891A)": {"target": "T27, RET(S891A) (Homo sapiens, UniProt P07949, S891A)", "T27 construct": "purchased Carna Biosciences"}, "DAPK1": {"target": "T28, DAPK1 (Homo sapiens, UniProt P53355)", "T28 construct": "purchased Carna Biosciences"}, "PKCδ": {"target": "T29, PKCδ (Homo sapiens, UniProt Q05655)", "T29 construct": "purchased Carna Biosciences"}, "ALK(R1275Q)": {"target": "T30, ALK(R1275Q) (Homo sapiens, UniProt Q9UM73, R1275Q)", "T30 construct": "purchased Carna Biosciences", "T30 sequence (Q9UM73 19-1620 R1275Q)": "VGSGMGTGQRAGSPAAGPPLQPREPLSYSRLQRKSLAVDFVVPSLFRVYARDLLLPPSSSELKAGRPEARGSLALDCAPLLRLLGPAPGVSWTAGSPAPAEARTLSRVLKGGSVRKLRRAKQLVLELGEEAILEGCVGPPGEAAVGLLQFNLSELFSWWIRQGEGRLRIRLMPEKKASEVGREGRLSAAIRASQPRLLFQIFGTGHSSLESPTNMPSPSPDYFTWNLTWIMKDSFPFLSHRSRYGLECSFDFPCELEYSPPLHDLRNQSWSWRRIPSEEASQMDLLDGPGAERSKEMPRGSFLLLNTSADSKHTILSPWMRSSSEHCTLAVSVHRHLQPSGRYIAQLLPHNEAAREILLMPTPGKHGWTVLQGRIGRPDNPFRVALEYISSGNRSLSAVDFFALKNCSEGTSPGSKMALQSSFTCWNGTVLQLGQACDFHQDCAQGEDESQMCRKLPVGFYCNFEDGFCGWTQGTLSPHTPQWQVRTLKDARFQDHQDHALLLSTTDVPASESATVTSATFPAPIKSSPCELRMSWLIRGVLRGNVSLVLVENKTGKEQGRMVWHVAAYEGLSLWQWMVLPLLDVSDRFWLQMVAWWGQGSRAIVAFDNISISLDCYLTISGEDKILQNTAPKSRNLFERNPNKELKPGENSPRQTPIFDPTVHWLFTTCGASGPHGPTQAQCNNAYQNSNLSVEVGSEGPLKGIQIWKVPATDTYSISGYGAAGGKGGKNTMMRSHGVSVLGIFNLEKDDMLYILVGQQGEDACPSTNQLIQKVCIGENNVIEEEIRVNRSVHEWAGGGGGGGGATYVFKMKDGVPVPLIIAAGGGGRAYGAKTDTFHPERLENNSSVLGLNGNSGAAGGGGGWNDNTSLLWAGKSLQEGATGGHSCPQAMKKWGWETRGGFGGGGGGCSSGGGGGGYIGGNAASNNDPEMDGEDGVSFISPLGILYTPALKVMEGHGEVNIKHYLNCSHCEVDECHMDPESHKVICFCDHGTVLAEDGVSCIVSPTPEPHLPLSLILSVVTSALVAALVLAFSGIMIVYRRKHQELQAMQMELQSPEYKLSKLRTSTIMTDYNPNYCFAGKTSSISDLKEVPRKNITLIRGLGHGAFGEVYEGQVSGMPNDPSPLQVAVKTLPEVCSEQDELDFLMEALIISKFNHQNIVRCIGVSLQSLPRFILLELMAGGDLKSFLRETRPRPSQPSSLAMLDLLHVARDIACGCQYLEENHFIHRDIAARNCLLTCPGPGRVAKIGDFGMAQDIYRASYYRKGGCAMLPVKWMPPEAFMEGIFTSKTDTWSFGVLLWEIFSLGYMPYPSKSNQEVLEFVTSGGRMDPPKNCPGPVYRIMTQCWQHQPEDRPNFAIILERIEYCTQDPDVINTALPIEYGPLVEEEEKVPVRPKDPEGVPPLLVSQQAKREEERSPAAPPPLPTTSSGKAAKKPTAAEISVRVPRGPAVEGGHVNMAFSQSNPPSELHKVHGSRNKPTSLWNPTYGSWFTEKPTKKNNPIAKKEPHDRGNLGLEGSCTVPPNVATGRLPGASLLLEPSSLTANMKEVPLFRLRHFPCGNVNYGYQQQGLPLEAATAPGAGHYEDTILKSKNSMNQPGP"}, "CaMK2α": {"target": "T31, CaMK2α (Homo sapiens, UniProt Q9UQM7)", "T31 construct": "purchased Carna Biosciences"}, "LATS2": {"target": "T32, LATS2 (Homo sapiens, UniProt Q9NRM7)", "T32 construct": "purchased Carna Biosciences"}, "CRIK": {"target": "T33, CRIK (Homo sapiens, UniProt O14578)", "T33 construct": "purchased Carna Biosciences"}, "HER2": {"target": "T34, HER2 (Homo sapiens, UniProt P04626)", "T34 construct": "purchased Carna Biosciences"}, "FGFR3(K650M)": {"target": "T35, FGFR3(K650M) (Homo sapiens, UniProt P22607, K650M)", "T35 construct": "purchased Carna Biosciences"}, "NDR2": {"target": "T36, NDR2 (Homo sapiens, UniProt Q9Y2H1)", "T36 construct": "purchased Carna Biosciences"}, "p38γ": {"target": "T37, p38γ (Homo sapiens, UniProt P53778)", "T37 construct": "purchased Carna Biosciences"}, "KKε": {"target": "T38, KKε (Homo sapiens, UniProt Q14164)", "T38 construct": "purchased Carna Biosciences"}, "CHK1": {"target": "T39, CHK1 (Homo sapiens, UniProt O14757)", "T39 construct": "purchased Carna Biosciences"}, "PAK6": {"target": "T40, PAK6 (Homo sapiens, UniProt Q9NQU5)", "T40 construct": "purchased Carna Biosciences"}}, "data": [{"smiles": "C[C@@H]1CC[C@H]2C(C)(C)CCC[C@]2(C)c2c1oc1c(C=O)c(O)c(O)cc21", "note": "[LG-1, liphagal]", "values": [{"measurement": "% Inhibition", "setting": "MAP3K4_Cascade", "result": 62.9, "unit": "%"}, {"measurement": "inhibition at 10 µM", "setting": "AurA", "result": 53.9, "unit": "%"}, {"measurement": "% Inhibition", "setting": "MAP3K3_Cascade", "result": 48.8, "unit": "%"}, {"measurement": "inhibition at 10 µM", "setting": "CDK3/CycE1", "result": 40.1, "unit": "%"}, {"measurement": "inhibition at 10 µM", "setting": "DYRK3", "result": 39.2, "unit": "%"}, {"measurement": "inhibition at 10 µM", "setting": "CDC2/CycB1", "result": 33.7, "unit": "%"}, {"measurement": "inhibition at 10 µM", "setting": "PDGFRα(T674I)", "result": 29.2, "unit": "%"}, {"measurement": "inhibition at 10 µM", "setting": "MAP2K3_Cascade", "result": 25.6, "unit": "%"}, {"measurement": "inhibition at 10 µM", "setting": "GSK3β", "result": 25.3, "unit": "%"}, {"measurement": "inhibition at 10 µM", "setting": "DYRK1B", "result": 21.8, "unit": "%"}, {"measurement": "inhibition at 10 µM", "setting": "PHKG1", "result": 21.7, "unit": "%"}, {"measurement": "inhibition at 10 µM", "setting": "HPK3", "result": 20.5, "unit": "%"}, {"measurement": "inhibition at 10 µM", "setting": "MAP2K6_Cascade", "result": 19.9, "unit": "%"}, {"measurement": "inhibition at 10 µM", "setting": "MLK3_Cascade", "result": 19.5, "unit": "%"}, {"measurement": "inhibition at 10 µM", "setting": "SRM", "result": 19, "unit": "%"}, {"measurement": "inhibition at 10 µM", "setting": "HER4", "result": 17.9, "unit": "%"}, {"measurement": "inhibition at 10 µM", "setting": "SYK", "result": 17, "unit": "%"}, {"measurement": "inhibition at 10 µM", "setting": "NEK1", "result": 13.9, "unit": "%"}, {"measurement": "inhibition at 10 µM", "setting": "PBK", "result": 13, "unit": "%"}, {"measurement": "inhibition at 10 µM", "setting": "AurA/TPX2", "result": 12.2, "unit": "%"}, {"measurement": "inhibition at 10 µM", "setting": "LCK", "result": 11, "unit": "%"}, {"measurement": "inhibition at 10 µM", "setting": "SRPK2", "result": 9.7, "unit": "%"}, {"measurement": "inhibition at 10 µM", "setting": "p38B", "result": 9.1, "unit": "%"}, {"measurement": "inhibition at 10 µM", "setting": "RSK4", "result": 7.4, "unit": "%"}, {"measurement": "inhibition at 10 µM", "setting": "CSK", "result": 7.2, "unit": "%"}, {"measurement": "inhibition at 10 µM", "setting": "TNK1", "result": 5.1, "unit": "%"}, {"measurement": "inhibition at 10 µM", "setting": "MAPKAPK5", "result": 4.8, "unit": "%"}, {"measurement": "inhibition at 10 µM", "setting": "CK1y3", "result": 3, "unit": "%"}, {"measurement": "inhibition at 10 µM", "setting": "RET(S891A)", "result": 2.1, "unit": "%"}, {"measurement": "inhibition at 10 µM", "setting": "DAPK1", "result": 1.8, "unit": "%"}, {"measurement": "inhibition at 10 µM", "setting": "PKCδ", "result": 1.6, "unit": "%"}, {"measurement": "inhibition at 10 µM", "setting": "ALK(R1275Q)", "result": -0.5, "unit": "%"}, {"measurement": "inhibition at 10 µM", "setting": "CaMK2α", "result": -0.5, "unit": "%"}, {"measurement": "inhibition at 10 µM", "setting": "LATS2", "result": -0.6, "unit": "%"}, {"measurement": "inhibition at 10 µM", "setting": "CRIK", "result": -0.8, "unit": "%"}, {"measurement": "inhibition at 10 µM", "setting": "HER2", "result": -1.6, "unit": "%"}, {"measurement": "inhibition at 10 µM", "setting": "FGFR3(K650M)", "result": -3.6, "unit": "%"}, {"measurement": "inhibition at 10 µM", "setting": "NDR2", "result": -4.9, "unit": "%"}, {"measurement": "inhibition at 10 µM", "setting": "p38γ", "result": -5.6, "unit": "%"}, {"measurement": "inhibition at 10 µM", "setting": "KKε", "result": -6.3, "unit": "%"}, {"measurement": "inhibition at 10 µM", "setting": "CHK1", "result": -15.3, "unit": "%"}, {"measurement": "inhibition at 10 µM", "setting": "PAK6", "result": -99.3, "unit": "%"}]}]}
